Laboratory results taken from US4151300A, “Acetohydroxamic acids” (Laboratoire L. Lafon, priority 1976, dated 1979).

Experiments:
[1] = tested on: mice; experiment: toxicity (isolated mice, intraperitoneal); assay type: in vivo
Protocol: (§1) The following text summarises a part of the results of the tests which were carried out with the products according to the invention, these products (unless otherwise stated) being administered intraperitoneally, in suspension in a gum solution (gum arabic), in a volume of 20 ml/kg in the case of mice and of 5 ml/kg in the case of rats.

[2] = tested on: central nervous system; settings: prior art; cited from earlier work
[3] = tested on: rats; experiment: interaction with apomorphine (stereotype behaviour in rats); assay type: in vivo; settings: rats, i.p.
Protocol: as §1
Batches of six rats are each given a subcutaneous injection of apomorphine (0.5 mg/kg) 30 minutes after the administration of CRL 40,373.
Batches of 6 rats are given a subcutaneous injection of 0.5 mg/kg of apomorphine 30 minutes after the administration of CRL 40,385.

[4] = tested on: rats; experiment: interaction with amphetamine (stereotypies in rats); assay type: in vivo; settings: i.p.
Protocol: as §1
30 minutes after the administration of CRL 40,373, amphetamine is injected intraperitoneally at a dose of 2 mg/kg.
Thirty minutes after the administration of CRL 40,385 the rats are given an intraperitoneal injection of 2 mg/kg of amphetamine (6 animals per dose).

[5] = tested on: mice; experiment: interaction with reserpine (hypothermia, ptosis); assay type: in vivo; settings: i.p.; for reserpine-induced hypothermia: 512 mg/kg
[6] = tested on: mice; experiment: interaction with oxotremorine (temperature, trembling, peripheral cholinergic symptoms); assay type: in vivo; settings: mice, i.p.
[7] = tested on: mice; experiment: spontaneous motility (actimeter); assay type: in vivo; settings: for spontaneous motility: i.p.
Protocol: as §1
Thirty minutes after having been given CRL 40,373, the mice (6 per dose, 12 comparison animals) are placed in an actimeter, where their motility is recorded for half an hour.
Thirty minutes after having been given CRL 40,385, the mice are placed in actimeters where their motility is recorded for half an hour.

[8] = tested on: mice; experiment: motility reduced by hypoxia treatment (motor recovery); assay type: in vivo; settings: for motor recovery after hypoxia/anoxia by pressure reduction: mice, i.p.
[9] = tested on: mice; experiment: inter-group aggressiveness (number of fights); assay type: in vivo
Protocol: as §1
After three weeks' residence in each of the halves of a cage divided by an opaque partition, the mice receive CRL 40,373 thirty minutes before being brought together by withdrawing the partition.
After 18 days' residence on either side of a partition separating their cage in the middle, groups of 3 mice receive CRL 40,385 and are brought together half an hour later by withdrawing the partition, and the number of fights which take place in the course of 15 minutes is noted.

[10] = tested on: central nervous system; experiment: psychopharmacological study / behaviour; assay type: in vivo, mice; settings: high dose (256 mg/kg)
[11] = tested on: mice; experiment: motility reduced by habituation to a cage (residual motility); assay type: in vivo; settings: i.p.
Protocol: as §1
Mice which have remained for 18 hours in the actimeters are given CRL 40,373. They are immediately replaced in their cages and, after a period of half an hour, their motility is recorded for 30 minutes (6 animals per dose, 12 comparison animals).
After remaining for 18 hours in the actimeters, the mice receive CRL 40,385. Immediately afterwards they are replaced in their cage and half an hour afterwards the recording of the motility starts and is continued for 30 minutes.

## O=C(C[S+]([O-])Cc1cccc2ccccc12)NO (stereo not drawn) [CRL 40,475, α-Naphthylmethylene-sulphinyl-acetohydroxamic acid]
[1]; mice, i.p.
  LD-O (maximum non-lethal dose): greater than 1,024 mg/kg

## O=C(CCC[S+]([O-])C(c1ccccc1)c1ccccc1)NO (centres unmarked) [4-benzhydrylsulphinyl-butyrohydroxamic acid]
[2]
  usefulness in therapy: of interest in the treatment of the central nervous system

## O=C(CNC(=O)C(c1ccccc1)c1ccccc1)NO [CRL 40,400, α-(Benzhydrylcarboxamido)-acetohydroxamic acid]
[1]; isolated mice, i.p., 128, 256, 512 and 1,024 mg/kg
  mortality: does not cause any mortality whatsoever
[3]
  apomorphine-induced stereotypies: does not modify the stereotypies induced in rats by apomorphine
[4]; rats
  amphetamine-induced stereotypies: does not modify the stereotypies induced in rats by apomorphine and amphetamine
[5]
  stereotypies induced by reserpine: does not modify the stereotypies
[6]
  stereotypies induced by oxotremorine: does not modify the stereotypies
[7]; mice
  motility: acts on the motility of mice

## COc1cc(NC(=O)CC(=O)NO)cc(OC)c1OC [CRL 40,509, 3,4,5-Trimethoxyphenyl-carbamoyl-acetohydroxamic acid]
[8]; 64 and 128 mg/kg
  anti-anoxia effect: an effect of the anti-anoxia type
[9]; very low doses (8 and 16 mg/kg)
  anti-aggressive effect: an effect of the anti-aggressive type
[10]
  sedation: sedation

## O=C(CCC[S+]([O-])c1ccc(F)cc1)NO (centres unmarked) [4-(p-fluorophenylsulphinyl)-butyrohydroxamic acid]
[2]
  usefulness in therapy: of interest in the treatment of the central nervous system

## O=C(CC[S+]([O-])c1ccc(F)cc1)NO (centres unmarked) [3-(p-fluorophenylsulphinyl)-propionohydroxamic acid]
[2]
  usefulness in therapy: of interest in the treatment of the central nervous system

## O=C(CC(=O)N(C1CCCCC1)C1CCCCC1)NO [CRL 40,446, N,N-(Dicyclohexyl)-carbamoylacetohydroxamic acid]
[1]; mouse, in vivo
  mortality: does not cause any mortality whatsoever
[5]
  reserpine-induced ptosis: ptosis induced by reserpine is not affected
  reserpine-induced hypothermia: partially antagonises hypothermia induced by reserpine
[7]; mice, 128 and 512 mg/kg
  spontaneous motility: reduces the spontaneous motility in mice
[11]
  motility reduced by habituation to the cage: does not cause any resumption in the motor activity of mice
[8]
  motor recovery after hypoxia/anoxia by pressure reduction: does not cause any resumption in the motor activity of mice
[9]; mice, i.p.
  inter-group aggressiveness: reduces, to a moderate degree, inter-group aggressiveness in mice

## O=C(Cc1nc2ccccc2n1-c1ccccc1)NO [CRL 40,490, 2-(1-Phenyl-benzimidazolyl)-acetohydroxamic acid]
[1]; mice, i.p.
  LD-O (maximum non-lethal dose): greater than 1,024 mg/kg

## CCC(C(=O)NO)C(=O)N(c1ccccc1)c1ccccc1 (centres unmarked) [CRL 40,439, 2-(N,N-Diphenylcarbamoyl)-butyrohydroxamic acid]
[1]; mice, i.p.
  LD-O (maximum non-lethal dose): greater than 1,024 mg/kg
[1]; mouse, in vivo, ip, 128 mg/kg
  symptoms / behaviour: none of these symptoms is observed
[5]
  reserpine-induced ptosis: does not affect reserpine-induced ptosis
  reserpine-induced hypothermia: increases, at a dose of 512 mg/kg, the hypothermia-inducing effect of reserpine
[6]
  oxotremorine-induced trembling: moderately reduces the intensity of the trembling movements due to oxotremorine
[6]; 512 mg/kg
  temperature (oxotremorine-induced hypothermia): increases, at a dose of 512 mg/kg, the hypothermia-inducing effect of reserpine and of oxotremorine
[7]; mice, 512 mg/kg
  spontaneous motility: very great reduction in the spontaneous motility
[11]; 128 mg/kg
  motility reduced by habituation to the cage: causes a resumption of the motor activity in animals habituated to their cage
[8]
  motor recovery after hypoxia/anoxia by pressure reduction: does not improve the motor recovery
[9]; mice, i.p.
  inter-group aggressiveness: moderately reduces the inter-group aggressiveness in mice

## O=C(CCC[S+]([O-])c1ccccc1)NO (centres unmarked) [4-phenylsulphinylbutyrohydroxamic acid]
[2]
  usefulness in therapy: of interest in the treatment of the central nervous system

## O=C(C[S+]([O-])C(c1ccccc1)c1ccccc1)NO (stereo not drawn) [β-benzhydrylsulphinyl-acetohydroxamic acid]
[2]
  usefulness in therapy: of interest in the treatment of the central nervous system

## O=C(CC(=O)Nc1ccc(Cl)c(Cl)c1)NO [CRL 40,491, 3,4-Dichlorophenylcarbamoylacetohydroxamic acid]
[1]; mice, i.p.
  LD-O (maximum non-lethal dose): greater than 1,024 mg/kg
[1]; mice, i.p., 1,024 mg/kg, 24 hours after administration
  mortality: no mortality 24 hours after administration
[4]; 256 mg/kg
  amphetamine-induced stereotypies: reduces the intensity of amphetamine-induced stereotypies
[7]; mice, 512 mg/kg
  spontaneous motility: reduction in the spontaneous motility of mice
[11]; 256 mg/kg
  motility reduced by habituation to the cage: moderate resumption of the activity of mice habituated to their cage
[9]; mice, i.p., 256 mg/kg
  inter-group aggressiveness: reduces the inter-group aggressiveness of mice

## O=C(CC[S+]([O-])C(c1ccccc1)c1ccccc1)NO (centres unmarked) [3-benzhydrylsulphinyl-propionohydroxamic acid]
[2]
  usefulness in therapy: of interest in the treatment of the central nervous system

## O=C(C[S+]([O-])Cc1ccc(Cl)cc1)NO (stereo not drawn) [CRL 40,411, α-(Chlorobenzylsulphinyl)-acetohydroxamic acid]
[1]; mice, i.p.
  LD-O (maximum non-lethal dose): greater than 1,024 mg/kg

## CC(C(=O)NO)N1C(=O)NC(c2ccccc2)(c2ccccc2)C1=O (centres unmarked) [CRL 40,447, 2-[3-(5,5-Diphenylhydantoinyl)]-propionohydroxamic acid]
[1]; mouse, in vivo, ip
  LD-O (maximum non-lethal dose): greater than 1,024 mg/kg
[7]; mice, 512 mg/kg
  spontaneous motility: reduces the spontaneous motility of mice

## CCC1(c2ccccc2)NC(=O)N(CC(=O)NO)C1=O (centres unmarked) [CRL 40,450, 3-(5-Ethyl-5-phenyl-hydantoinyl)-acetohydroxamic acid]
[1]; mice, i.p.
  LD-O (maximum non-lethal dose): greater than 1,024 mg/kg
[5]
  reserpine-induced hypothermia: aggravates the hypothermia induced by reserpine
[6]; 512 mg/kg
  temperature (oxotremorine-induced hypothermia): aggravates the hypothermia induced by reserpine and by oxotremorine
[6]; high dose (512 mg/kg)
  oxotremorine-induced trembling: reduces the intensity of the trembling movements due to oxotremorine
[7]; mice, 512 mg/kg
  spontaneous motility: reduction in the spontaneous motility of mice
[9]; mice, i.p., 512 and 256 mg/kg
  inter-group aggressiveness: reduces the inter-group aggressiveness in mice

## O=C(CC(=O)Nc1ccc(Cl)cc1)NO [CRL 40,464, N-(4-Chlorophenyl)-carbamoyl-acetohydroxamic acid]
[1]; mice, i.p.
  LD-O (maximum non-lethal dose): greater than 1,024 mg/kg
[4]; 256 mg/kg
  amphetamine-induced stereotypies: reduces the intensity of amphetamine-induced stereotypies
[6]
  oxotremorine-induced trembling: moderately reduces the intensity of the trembling movements
  temperature (oxotremorine-induced hypothermia): aggravates the hypothermia due to oxotremorine
[7]
  spontaneous motility: reduces the spontaneous motility in mice
[11]; 128 mg/kg
  motility reduced by habituation to the cage: causes a resumption of the motor activity in animals habituated to their cage

## O=C(CN1C(=O)NC(c2ccc(Cl)cc2)(c2ccc(Cl)cc2)C1=O)NO [CRL 40,468, 3-(5,5-di-p-chlorophenyl-hydantoinyl)-acetohydroxamic acid]
[1]; mouse, in vivo
  mortality: found dead 24 hours after the injection
[1]; mouse, in vivo, ip, 512 mg/kg
  mortality: no mortality is observed
  symptoms / behaviour: the symptoms are comparable
[9]; mice, i.p., large/high dose
  aggressiveness: reduces the number of fights

## O=C(CCC[S+]([O-])c1ccc(Cl)cc1)NO (centres unmarked) [4-(p-chlorophenylsulphinyl)-butyrohydroxamic acid]
[2]
  usefulness in therapy: of interest in the treatment of the central nervous system

## O=C(CNC(=O)Nc1ccccc1)NO [CRL 40,513, 5-Phenylureidoacetohydroxamic acid]
[1]; mouse, in vivo, ip
  LD-O (maximum non-lethal dose): greater than 1,024 mg/kg
  symptoms / behaviour: sedation and hypothermia
[8]
  motor recovery after hypoxia/anoxia by pressure reduction: improvement in the motor recovery of mice
[9]; mice, i.p.
  inter-group aggressiveness: anti-aggressive effect

## O=C(CC(O)COc1cccc2ccccc12)NO (stereo not drawn) [4-α-naphthyloxy-3-hydroxybutyrohydroxamic acid]
[2]
  usefulness in therapy: inactive in therapy
